The experiment addresses cdk2/cyclin A (Homo sapiens, UniProt P24941). The experiment is described as follows: Inhibition assay of cdk2/Cyclin A activity (SPA). The class given is biochemical. As to conditions: tested against cdk2/cyclin A; read-out: inhibitory activity, expressed as IC50. The source says: When the number of compounds to be tested became consistent, the need for a fast and homogeneous screening assay was raised. Thus a method of assay based on the use of the SPA technology (Amersham Pharmacia Biotech) was set up. The assay consists of the transfer of radioactivity labelled phosphate moiety by the kinase to a biotinylated substrate. The resulting 33P-labelled biotinylated product is allowed to bind to streptavidin-coated SPA beads (biotin capacity 130 pmol/mg), and light emitted was measured in a scintillation counter.
Inhibition Assay of cdk2/Cyclin A Activity
Kinase reaction: 4 microM in house biotinylated histone H1 (Sigma # H-5505) substrate, 10 microM ATP (0.1 microCi P^33gamma-ATP), 4.2 ng cdk2/Cyclin A complex, inhibitor in a final volume of 30 microl buffer (TRIS HCl 10 mM pH 7.5, MgCl2 10 mM, DTT 7.5 mM+0.2 mg/ml BSA) were added to each well of a 96 U bottom. […]
After 20 min. incubation for substrate capture, 100 microl 5M CsCl were added to allow statification of beads to the top of the plate and let stand 4 hours before radioactivity counting in the Top-Count instrument
IC50 determination: inhibitors were tested at different concentrations ranging from 0.0015 to 10 microM. Experimental data were analyzed by the computer program GraphPad Prizm using the four parameter logistic equation: […]

Turning to `CC(=O)Nc1ccc(CC(=O)Nc2ncc(C(C)C)s2)cc1` [N-(5-isopropyl-1,3-thiazol-2-yl)-2-[4-(acetylamino)phenyl]acetamide], the IC50 amounted to 110 nM.

On to `CC(=O)Nc1ccc([C@H](C)C(=O)Nc2ncc(C(C)C)s2)cc1` [(2S)-2-[4-(acetylamino)phenyl]-N-(5-isopropyl-1,3-thiazol-2-yl)propanamide], for which the concentration for half-maximal inhibition (IC50) worked out at 11 nM.

As usually defined, the IC50 is the point on the concentration scale where inhibition reaches its midpoint.

(Values after patent US20040235919A1, “Phenylacetamido-thiazole derivatives, process for the preparation and their use as antitumor agents” (priority 2001, published 2004).)
